Source: ChEMBL document CHEMBL3046002, “Synthesis and antimicrobial activity of coumarin pyrazole pyrimidine 2,4,6(1H,3H,5H)triones and thioxopyrimidine4,6(1H,5H)diones” (2013)
Values after ≈ are worked out from the molar mass of the structure shown. Active and inactive are the calls of the source. The rule behind the calls is not given here.

Test system: Pseudomonas aeruginosa
Experiment: Antimicrobial activity against Pseudomonas aeruginosa assessed as growth inhibition after 24 hr by broth dilution method
Type: functional
Details: not given

Question: Which MIC does the source give for `O=C1NC(=O)C(=Cc2cn(-c3ccccc3)nc2-c2cc3ccccc3oc2=O)C(=O)N1` here?
Answer: The MIC was 150 µg/mL (≈ 352 µM).

Question: How did the MIC turn out when `O=C1NC(=O)C(=Cc2cn(-c3ccccc3)nc2-c2cc3cc(Cl)c(Cl)cc3oc2=O)C(=O)N1` was run?
Answer: Its MIC is 150 µg/mL (≈ 303 µM).

Question: With `O=C1NC(=O)C(=Cc2cn(-c3ccccc3)nc2-c2cc3cc(Br)ccc3oc2=O)C(=O)N1` as the compound, how does the MIC read?
Answer: The MIC was 600 µg/mL (≈ 1190 µM).

Question: Which MIC does the source give for `O=C1NC(=S)NC(=O)C1=Cc1cn(-c2ccccc2)nc1-c1cc2cc(Br)ccc2oc1=O` here?
Answer: The MIC was 300 µg/mL (≈ 575 µM).

Question: `O=C1NC(=S)NC(=O)C1=Cc1cn(-c2ccccc2)nc1-c1cc2cc3ccccc3cc2oc1=O` was tested. Which MIC did it give?
Answer: Its MIC is 150 µg/mL (≈ 305 µM).

Test system: Aspergillus niger
Experiment: Antimicrobial activity against Aspergillus niger assessed as diameter of growth inhibition zone at 30 ug/ml after 48 hr by agar cup bioassay
Type: functional
Details: read-out: DIZ

Question: How did the zone of inhibition at 30 µg/mL turn out when `OC(Cn1cncn1)(Cn1cncn1)c1ccc(F)cc1F` [FLUCONAZOLE] was run?
Answer: The zone of inhibition at 30 µg/mL was 30 mm.

Test system: Klebsiella pneumoniae
Experiment: Antimicrobial activity against Klebsiella pneumoniae assessed as growth inhibition after 24 hr by broth dilution method
Type: functional
Details: not given

Question: With `O=C1NC(=O)C(=Cc2cn(-c3ccccc3)nc2-c2cc3ccccc3oc2=O)C(=O)N1` as the compound, how does the MIC read?
Answer: Its MIC is 150 µg/mL (≈ 352 µM).

Question: With `O=C1NC(=O)C(=Cc2cn(-c3ccccc3)nc2-c2cc3cc(Cl)c(Cl)cc3oc2=O)C(=O)N1` as the compound, how does the MIC read?
Answer: The MIC was 150 µg/mL (≈ 303 µM).

Question: With `O=C(O)c1cn(C2CC2)c2cc(N3CCNCC3)c(F)cc2c1=O` [CIPROFLOXACIN] as the compound, how does the MIC read?
Answer: Its MIC is 25 µg/mL (≈ 75.4 µM).

Question: Which MIC does the source give for `O=C1NC(=O)C(=Cc2cn(-c3ccccc3)nc2-c2cc3cc(Br)ccc3oc2=O)C(=O)N1` here?
Answer: Its MIC is 150 µg/mL (≈ 297 µM).

Question: With `O=C1NC(=S)NC(=O)C1=Cc1cn(-c2ccccc2)nc1-c1cc2cc(Br)ccc2oc1=O` as the compound, how does the MIC read?
Answer: Its MIC is 150 µg/mL (≈ 288 µM).

Question: `O=C1NC(=S)NC(=O)C1=Cc1cn(-c2ccccc2)nc1-c1cc2cc3ccccc3cc2oc1=O` was tested. Which MIC did it give?
Answer: Its MIC is 150 µg/mL (≈ 305 µM).

Test system: Escherichia coli
Experiment: Antimicrobial activity against Escherichia coli assessed as growth inhibition after 24 hr by broth dilution method
Type: functional
Details: not given

Question: With `O=C1NC(=O)C(=Cc2cn(-c3ccccc3)nc2-c2cc3ccccc3oc2=O)C(=O)N1` as the compound, how does the MIC read?
Answer: Its MIC is 300 µg/mL (≈ 704 µM).

Question: For `O=C1NC(=O)C(=Cc2cn(-c3ccccc3)nc2-c2cc3cc(Cl)c(Cl)cc3oc2=O)C(=O)N1`, which MIC is on record?
Answer: The MIC was 300 µg/mL (≈ 606 µM).

Question: `O=C(O)c1cn(C2CC2)c2cc(N3CCNCC3)c(F)cc2c1=O` [CIPROFLOXACIN] was tested. Which MIC did it give?
Answer: The MIC was 20 µg/mL (≈ 60.4 µM).

Question: For `O=C1NC(=O)C(=Cc2cn(-c3ccccc3)nc2-c2cc3cc(Br)ccc3oc2=O)C(=O)N1`, which MIC is on record?
Answer: The MIC was 600 µg/mL (≈ 1190 µM).

Question: How did the MIC turn out when `O=C1NC(=S)NC(=O)C1=Cc1cn(-c2ccccc2)nc1-c1cc2cc(Br)ccc2oc1=O` was run?
Answer: Its MIC is 300 µg/mL (≈ 575 µM).

Question: Which MIC does the source give for `O=C1NC(=S)NC(=O)C1=Cc1cn(-c2ccccc2)nc1-c1cc2cc3ccccc3cc2oc1=O` here?
Answer: Its MIC is 600 µg/mL (≈ 1220 µM).

Test system: Bacillus subtilis
Experiment: Antimicrobial activity against Bacillus subtilis assessed as growth inhibition after 24 hr by broth dilution method
Type: functional
Details: not given

Question: How did the MIC turn out when `O=C1NC(=O)C(=Cc2cn(-c3ccccc3)nc2-c2cc3ccccc3oc2=O)C(=O)N1` was run?
Answer: The MIC was 300 µg/mL (≈ 704 µM).

Question: For `O=C1NC(=O)C(=Cc2cn(-c3ccccc3)nc2-c2cc3cc(Cl)c(Cl)cc3oc2=O)C(=O)N1`, which MIC is on record?
Answer: The MIC was 300 µg/mL (≈ 606 µM).

Question: For `O=C(O)c1cn(C2CC2)c2cc(N3CCNCC3)c(F)cc2c1=O` [CIPROFLOXACIN], which MIC is on record?
Answer: Its MIC is 24 µg/mL (≈ 72.4 µM).

Question: How did the MIC turn out when `O=C1NC(=O)C(=Cc2cn(-c3ccccc3)nc2-c2cc3cc(Br)ccc3oc2=O)C(=O)N1` was run?
Answer: The MIC was 150 µg/mL (≈ 297 µM).

Question: With `O=C1NC(=S)NC(=O)C1=Cc1cn(-c2ccccc2)nc1-c1cc2cc(Br)ccc2oc1=O` as the compound, how does the MIC read?
Answer: The MIC was 600 µg/mL (≈ 1150 µM).

Question: For `O=C1NC(=S)NC(=O)C1=Cc1cn(-c2ccccc2)nc1-c1cc2cc3ccccc3cc2oc1=O`, which MIC is on record?
Answer: Its MIC is 300 µg/mL (≈ 609 µM).

Test system: Staphylococcus aureus
Experiment: Antimicrobial activity against Staphylococcus aureus assessed as growth inhibition after 24 hr by broth dilution method
Type: functional
Details: not given

Question: For `O=C1NC(=O)C(=Cc2cn(-c3ccccc3)nc2-c2cc3ccccc3oc2=O)C(=O)N1`, which MIC is on record?
Answer: Its MIC is 300 µg/mL (≈ 704 µM).

Question: `O=C1NC(=O)C(=Cc2cn(-c3ccccc3)nc2-c2cc3cc(Cl)c(Cl)cc3oc2=O)C(=O)N1` was tested. Which MIC did it give?
Answer: Its MIC is 300 µg/mL (≈ 606 µM).

Question: For `O=C1NC(=O)C(=Cc2cn(-c3ccccc3)nc2-c2cc3cc(Br)ccc3oc2=O)C(=O)N1`, which MIC is on record?
Answer: The MIC was 150 µg/mL (≈ 297 µM).

Question: How did the MIC turn out when `O=C1NC(=S)NC(=O)C1=Cc1cn(-c2ccccc2)nc1-c1cc2cc(Br)ccc2oc1=O` was run?
Answer: Its MIC is 600 µg/mL (≈ 1150 µM).

Question: `O=C1NC(=S)NC(=O)C1=Cc1cn(-c2ccccc2)nc1-c1cc2cc3ccccc3cc2oc1=O` was tested. Which MIC did it give?
Answer: The MIC was 150 µg/mL (≈ 305 µM).

Test system: Staphylococcus epidermidis
Experiment: Antimicrobial activity against Staphylococcus epidermidis assessed as growth inhibition after 24 hr by broth dilution method
Type: functional
Details: not given

Question: Which MIC does the source give for `O=C1NC(=O)C(=Cc2cn(-c3ccccc3)nc2-c2cc3ccccc3oc2=O)C(=O)N1` here?
Answer: Its MIC is 300 µg/mL (≈ 704 µM).

Question: Which MIC does the source give for `O=C1NC(=O)C(=Cc2cn(-c3ccccc3)nc2-c2cc3cc(Cl)c(Cl)cc3oc2=O)C(=O)N1` here?
Answer: The MIC was 300 µg/mL (≈ 606 µM).

Question: Which MIC does the source give for `O=C(O)c1cn(C2CC2)c2cc(N3CCNCC3)c(F)cc2c1=O` [CIPROFLOXACIN] here?
Answer: Its MIC is 22 µg/mL (≈ 66.4 µM).

Question: `O=C1NC(=O)C(=Cc2cn(-c3ccccc3)nc2-c2cc3cc(Br)ccc3oc2=O)C(=O)N1` was tested. Which MIC did it give?
Answer: Its MIC is 150 µg/mL (≈ 297 µM).

Question: Which MIC does the source give for `O=C1NC(=S)NC(=O)C1=Cc1cn(-c2ccccc2)nc1-c1cc2cc(Br)ccc2oc1=O` here?
Answer: Its MIC is 300 µg/mL (≈ 575 µM).

Question: Which MIC does the source give for `O=C1NC(=S)NC(=O)C1=Cc1cn(-c2ccccc2)nc1-c1cc2cc3ccccc3cc2oc1=O` here?
Answer: The MIC was 300 µg/mL (≈ 609 µM).

Test system: Aspergillus niger
Experiment: Antimicrobial activity against Aspergillus niger assessed as growth inhibition zone after 48 hr by agar cup bioassay
Type: functional, organism-based
Details: not given

Question: How did the “growth inhibition (GI)” value turn out when `O=C1NC(=O)C(=Cc2cn(-c3ccccc3)nc2-c2cc3ccccc3oc2=O)C(=O)N1` was run?
Answer: The value was “inactive”.

Question: Which “growth inhibition (GI)” value does the source give for `O=C1NC(=O)C(=Cc2cn(-c3ccccc3)nc2-c2cc3cc(Cl)c(Cl)cc3oc2=O)C(=O)N1` here?
Answer: Its value is “inactive”.

Question: With `O=C1NC(=S)NC(=O)C1=Cc1cn(-c2ccccc2)nc1-c1cc2cc(Br)ccc2oc1=O` as the compound, how does the “growth inhibition (GI)” value read?
Answer: The value was “inactive”.

Question: How did the “growth inhibition (GI)” value turn out when `O=C1NC(=S)NC(=O)C1=Cc1cn(-c2ccccc2)nc1-c1cc2cc3ccccc3cc2oc1=O` was run?
Answer: Its value is “inactive”.

Test system: Aspergillus niger
Experiment: Antimicrobial activity against Aspergillus niger assessed as diameter of growth inhibition zone at 150 ug/ml after 48 hr by agar cup bioassay
Type: functional
Details: read-out: DIZ

Question: With `O=C1NC(=O)C(=Cc2cn(-c3ccccc3)nc2-c2cc3cc(Br)ccc3oc2=O)C(=O)N1` as the compound, how does the zone of inhibition at 150 µg/mL read?
Answer: Its zone of inhibition at 150 µg/mL is 20 mm.

Test system: Aspergillus niger
Experiment: Antimicrobial activity against Aspergillus niger assessed as diameter of growth inhibition zone at 100 ug/ml after 48 hr by agar cup bioassay
Type: functional
Details: read-out: DIZ

Question: `O=C1NC(=O)C(=Cc2cn(-c3ccccc3)nc2-c2cc3cc(Br)ccc3oc2=O)C(=O)N1` was tested. Which zone of inhibition at 100 µg/mL did it give?
Answer: Its zone of inhibition at 100 µg/mL is 14 mm.
